Measurements: PubChem BioAssay (NCI)
Values joined by “and” are separate entries in the source; they are usually repeats but may differ in a detail not shown here. Equal values may be shown once.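 96-well plates; 48 h exposure; 5 concentrations. Endpoints by linear interpolation between flanking doses. Not reached: highest tested concentration assigned. GI50 is the concentration that inhibits growth by half. TGI denotes the concentration required for complete inhibition of growth.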

Key:
Test in all cases: DTP human tumour cell line panel, 48 h
M14 melanoma = tested on: M14 melanoma
SK-MEL-28 melanoma = tested on: SK-MEL-28 melanoma
NCI/ADR-RES ovarian = tested on: NCI/ADR-RES ovarian
HL-60(TB) leukemia = tested on: HL-60(TB) leukemia
A498 renal = tested on: A498 renal
SF-268 CNS = tested on: SF-268 CNS
MCF7 breast = tested on: MCF7 breast
LOX IMVI melanoma = tested on: LOX IMVI melanoma
KM12 colon = tested on: KM12 colon
U251 CNS = tested on: U251 CNS

Row | SMILES | GI50 (M14 melanoma) | TGI (M14 melanoma) | GI50 (SK-MEL-28 melanoma) | TGI (SK-MEL-28 melanoma) | GI50 (NCI/ADR-RES ovarian) | TGI (NCI/ADR-RES ovarian) | GI50 (HL-60(TB) leukemia) | TGI (HL-60(TB) leukemia) | GI50 (A498 renal) | TGI (A498 renal) | GI50 (SF-268 CNS) | TGI (SF-268 CNS) | GI50 (MCF7 breast) | TGI (MCF7 breast) | GI50 (LOX IMVI melanoma) | TGI (LOX IMVI melanoma) | GI50 (KM12 colon) | TGI (KM12 colon) | GI50 (U251 CNS) | TGI (U251 CNS)
1 | O=C(O)C(=O)CBr | > 89.1 µM and 44 µM | > 100 µM | > 42.4 µM and 16.6 µM | > 62.8 µM and 32.2 µM | > 54.6 µM and 20.2 µM | > 94.4 µM and 44 µM | 12.1 µM and 18.9 µM | 46.1 µM and 45.1 µM | > 100 µM | > 100 µM | > 85.2 µM and 18.3 µM | > 100 µM and 32.5 µM | > 61.4 µM and 29.3 µM | > 100 µM and 94.7 µM | > 44.4 µM and 17.3 µM | > 63.1 µM and 31.8 µM | > 100 µM and 19 µM | > 100 µM and 34.5 µM | > 100 µM and 21.6 µM | > 100 µM and 42.9 µM
2 | Cc1cc(O)cc2c1c(=O)c1ccccc1n2C |  | > 100 µM |  |  |  | > 100 µM |  | > 100 µM |  | > 100 µM |  | 84.4 µM |  | > 100 µM |  | > 100 µM |  | > 100 µM |  | > 100 µM
3 | COc1ccc(NC(=O)/C=C(C)/C=C/C=C(C)\C=C\C2=C(C)CCCC2(C)C)cc1 | > 100 µM | > 100 µM | > 100 µM | > 100 µM | 60.6 µM | > 100 µM | 2.13 µM | 16.1 µM | > 100 µM | > 100 µM | > 100 µM | > 100 µM | 40.3 µM | > 100 µM | 32 µM | > 100 µM | 62.8 µM | > 100 µM | > 100 µM | > 100 µM
4 | O=C(NCCCCOCC#Cc1ccccc1C#CCS(=O)(=O)c1ccccc1)c1cc2ccccc2[nH]1 | 12.1 µM | 36.3 µM | 9.82 µM | 26.7 µM | 7.99 µM | 25 µM |  |  | 25.8 µM | > 50 µM | 12.4 µM | > 43.1 µM | 8.91 µM | > 26.1 µM | 1.58 µM | 4.8 µM | 17.5 µM | > 50 µM | 9.64 µM | 22 µM
5 | CC(C)(C)C(=O)OCc1nc2cc3c(cc2c(=O)[nH]1)CCC3=O | > 100 µM | > 100 µM | > 100 µM | > 100 µM | > 100 µM | > 100 µM | > 100 µM | > 100 µM | > 100 µM | > 100 µM | > 100 µM | > 100 µM | > 100 µM | > 100 µM | > 100 µM | > 100 µM | > 100 µM | > 100 µM | > 100 µM | > 100 µM
6 | CC[C@H](NC(=O)[C@H](CS(=O)(=O)CC1CC1)N[C@@H](c1ccc(F)cc1)C(F)(F)F)C(=O)C(=O)NC1CC1 | > 100 µM | > 100 µM | > 100 µM | > 100 µM | > 100 µM | > 100 µM | > 100 µM | > 100 µM | > 100 µM | > 100 µM | > 100 µM | > 100 µM | 86.8 µM | > 100 µM | > 100 µM | > 100 µM | > 100 µM | > 100 µM | > 100 µM | > 100 µM
7 | CCCCCCNC(=O)Oc1ccc(/C(=C(\C)c2ccccc2)c2ccc(OCCN(CC)CC)cc2)cc1 | 1.11 µM | 2.38 µM | 3.12 µM | 9.3 µM | 5.47 µM | 11.9 µM | 0.524 µM | 5.2 µM | 6.93 µM | 13.6 µM | 5.54 µM | 13.1 µM | 0.602 µM | 5.47 µM | 1.1 µM | 2.96 µM | 2.84 µM | 10 µM | 2.41 µM | 8.15 µM
8 | NS(=O)(=O)c1ccc(NC(=O)Nc2ccccc2F)cc1 |  | > 100 µM |  | > 100 µM |  | > 100 µM |  | > 100 µM |  | > 100 µM |  | > 100 µM |  | > 100 µM |  | > 100 µM |  | > 100 µM |  | > 100 µM
9 | CCOC(=O)c1ccccc1-c1c2ccc(=[N+](C)C)cc-2oc2cc(N(C)C)ccc12 | 0.448 µM | 10.9 µM | 0.687 µM | 13 µM | 27.2 µM | > 100 µM | 0.229 µM | 1.08 µM | 0.013 µM | 1.11 µM | 0.332 µM | 27.5 µM | 0.101 µM | 19.4 µM | 0.388 µM | 4.41 µM | 0.196 µM | 10.9 µM | 0.128 µM | > 35.7 µM
10 | COC(=O)[C@]12CC[C@@H](C)[C@H](C)[C@@H]1C1=CC[C@@H]3[C@@]4(C)CC(=O)[C@H](OC(=O)c5ccco5)[C@@]5(C)COC(=C45)C[C@@]3(C)[C@]1(C)CC2 | 0.654 µM | > 100 µM | 0.579 µM | > 100 µM | 6.37 µM | > 100 µM | 0.46 µM | > 100 µM | 13.3 µM | > 100 µM | 4.86 µM | > 100 µM | 0.741 µM | > 100 µM | 0.427 µM | > 100 µM | 2.22 µM | > 100 µM | 0.703 µM | > 100 µM
11 | O=[As]c1ccc(C(=O)c2ccc(Oc3ccccc3)cc2)cc1 (stereo not drawn) | 0.0695 µM | 0.202 µM | 0.0416 µM | 0.153 µM | 0.0378 µM | 0.143 µM | 0.119 µM | 0.463 µM | 0.141 µM | 0.295 µM | 0.0344 µM | 0.129 µM | 0.0181 µM | 0.0903 µM | 0.0246 µM | 0.0796 µM | 0.0532 µM | 0.177 µM | 0.0181 µM | 0.0586 µM
12 | C#CCN(Cc1nc2cc(C(F)(F)F)ccc2nc1-c1ccccc1)c1ccc(F)c(F)c1 | > 100 µM | > 100 µM | > 100 µM | > 100 µM | 56.1 µM | > 100 µM | 39 µM | > 100 µM | 39.9 µM | > 100 µM | 22.1 µM | > 100 µM | 26 µM | > 100 µM | 42 µM | > 100 µM |  |  | 66.5 µM | > 100 µM
13 | CCCCOc1ccc(/C=N/Nc2cc(C)nc3ccc(Cl)cc23)cc1 | 1.89 µM | 3.91 µM | 1.66 µM | 3.08 µM | 1.73 µM | 3.36 µM | 1.76 µM | 3.65 µM | 1.52 µM | 2.93 µM |  |  | 1.65 µM | 3.37 µM | 1.69 µM | 3.09 µM | 1.93 µM | 3.87 µM | 1.72 µM | 3.19 µM
